From patent publication US9302999B2, “Substituted triazoles as herbicides” (E. I. DU PONT DE NEMOURS AND COMPANY, priority 2012, dated 2016)

Columns and labels:
Assay type in all cases: in vivo
[1] = system: poinsettia, wild (wild poinsettia, Euphorbia heterophylla); experiment: Test E pre-/postemergence: poinsettia, wild; conditions: scale 0 to 100
Description: (§1) Seeds of plant species selected from corn (Zea mays), soybean (Glycine max), velvetleaf (Abutilon theophrasti), lambsquarters (Chenopodium album), poinsettia, wild (wild poinsettia, Euphorbia heterophylla), pigweed, palmer (palmer pigweed, Amaranthus palmeri), waterhemp (common waterhemp, Amaranthus rudis), smartweed (ladysthumb smartweed, Polygonum persicaria), surinam grass (Brachiaria decumbens), crabgrass, large (large crabgrass, Digitaria sanguinalis), crabgrass, Brazil (Brazilian crabgrass, Digitaria horizontalis), panicum, fall (fall panicum, Panicum dichotomiflorum), foxtail, giant (giant foxtail, Setaria faberii), foxtail, green (green foxtail, Setaria viridis), goosegrass (Eleusine indica), johnsongrass (Sorghum halepense), ragweed (common ragweed, Ambrosia elation), barnyardgrass (Echinochloa crus-galli), sandbur (southern sandbur, Cenchrus echinatus), arrowleaf sida (Sida rhombifolia), ryegrass, Italian (Italian ryegrass, Lolium multiflorum), dayflower, (VA) (Virginia dayflower, Commelina virginica), field bindweed (Convolvulus arvensis), cocklebur (common cocklebur, Xanthium strumarium), morningglory (Ipomoea coccinea), nightshade (eastern black nightshade, Solanum ptycanthum), kochia (Kochia scoparia), nutsedge, yellow (yellow nutsedge, Cyperus esculentus) and beggarticks (hairy beggarticks, Bidens pilosa) were planted into a silt loam soil and treated preemergence with test chemicals formulated in a non-phytotoxic solvent mixture which included a surfactant. At the same time, plants selected from these crop and weed species were planted in pots containing a growing medium comprising spaghnum peat moss, vermiculite, wetting agent and starter nutrients and treated with postemergence applications of some of the test chemicals formulated in the same manner. Plants ranged in height from 2 to 18 cm for postemergence treatments (1- to 4-leaf stage).
(§2) Treated plants and controls were maintained in a greenhouse for 14 to 21 days, after which time all species were compared to controls and visually evaluated. Plant response ratings, summarized in Table E, are based on a scale of 0 to 100 where 0 is no effect and 100 is complete control. A dash (-) response means no test result.

[2] = system: crabgrass, large (large crabgrass, Digitaria sanguinalis); experiment: Test E pre-/postemergence: crabgrass, large; conditions: Preemergence, scale 0 to 100
Description: as §1, §2

[3] = system: crabgrass, Brazil (Brazilian crabgrass, Digitaria horizontalis); experiment: Test E pre-/postemergence: crabgrass, Brazil; conditions: scale 0 to 100
Description: as §1, §2

[4] = system: foxtail, giant (giant foxtail, Setaria faberii); experiment: Test E pre-/postemergence: foxtail, giant; conditions: Preemergence, scale 0 to 100
Description: as §1, §2

[5] = system: johnsongrass (Sorghum halepense); experiment: Test E pre-/postemergence: johnsongrass; conditions: Preemergence, scale 0 to 100
Description: as §1, §2

[6] = system: barnyardgrass (Echinochloa crus-galli); experiment: Test E pre-/postemergence: barnyardgrass; conditions: scale 0 to 100
Description: as §1, §2

[7] = system: nightshade (eastern black nightshade, Solanum ptycanthum); experiment: Test E pre-/postemergence: nightshade; conditions: Preemergence, scale 0 to 100
Description: as §1, §2

[8] = system: morningglory (Ipomoea coccinea); experiment: Test E pre-/postemergence: morningglory; conditions: Preemergence, scale 0 to 100
Description: as §1, §2

## Cc1nn(-c2ccc(C(F)(F)F)cn2)nc1Oc1ccnc(C(F)(F)F)c1 [Compound 23]
[1]; Preemergence, 16 g ai/ha
  Plant response rating: Poinsettia, Wild: 0
[1]; Preemergence, 31 g ai/ha
  Plant response rating: Poinsettia, Wild: 0
[1]; Preemergence, 62 g ai/ha
  Plant response rating: Poinsettia, Wild: 0
[1]; Preemergence, 125 g ai/ha
  Plant response rating: Poinsettia, Wild: 35
[1]; Preemergence, 250 g ai/ha
  Plant response rating: Poinsettia, Wild: 35
[2]; 16 g ai/ha
  Plant response rating: Crabgrass, Large: 5
[2]; 31 g ai/ha
  Plant response rating: Crabgrass, Large: 5
[2]; 62 g ai/ha
  Plant response rating: Crabgrass, Large: 35
[2]; 125 g ai/ha
  Plant response rating: Crabgrass, Large: 70
[2]; 250 g ai/ha
  Plant response rating: Crabgrass, Large: 100
[3]; Preemergence, 16 g ai/ha
  Plant response rating: Crabgrass, Brazil: 0
[3]; Preemergence, 31 g ai/ha
  Plant response rating: Crabgrass, Brazil: 0
[3]; Preemergence, 62 g ai/ha
  Plant response rating: Crabgrass, Brazil: 65
[3]; Preemergence, 125 g ai/ha
  Plant response rating: Crabgrass, Brazil: 65
[3]; Preemergence, 250 g ai/ha
  Plant response rating: Crabgrass, Brazil: 85
[4]; 16 g ai/ha
  Plant response rating: Foxtail, Giant: 0
[4]; 31 g ai/ha
  Plant response rating: Foxtail, Giant: 5
[4]; 62 g ai/ha
  Plant response rating: Foxtail, Giant: 5
[4]; 125 g ai/ha
  Plant response rating: Foxtail, Giant: 100
[4]; 250 g ai/ha
  Plant response rating: Foxtail, Giant: 100
[5]; 16 g ai/ha
  Plant response rating: Johnsongrass: 0
[5]; 31 g ai/ha
  Plant response rating: Johnsongrass: 0
[5]; 62 g ai/ha
  Plant response rating: Johnsongrass: 0
[5]; 125 g ai/ha
  Plant response rating: Johnsongrass: 20
[5]; 250 g ai/ha
  Plant response rating: Johnsongrass: 60
[6]; Preemergence, 16 g ai/ha
  Plant response rating: Barnyardgrass: 0
[6]; Preemergence, 31 g ai/ha
  Plant response rating: Barnyardgrass: 0
[6]; Preemergence, 62 g ai/ha
  Plant response rating: Barnyardgrass: 0
[6]; Preemergence, 125 g ai/ha
  Plant response rating: Barnyardgrass: 20
[6]; Preemergence, 250 g ai/ha
  Plant response rating: Barnyardgrass: 20
[7]; 16 g ai/ha
  Plant response rating: Nightshade: 0
[7]; 31 g ai/ha
  Plant response rating: Nightshade: 0
[7]; 62 g ai/ha
  Plant response rating: Nightshade: 0
[7]; 125 g ai/ha
  Plant response rating: Nightshade: 95
[7]; 250 g ai/ha
  Plant response rating: Nightshade: 98

## Cc1nn(-c2ccc(C(F)(F)F)cc2)nc1Oc1ccnc(C(F)(F)F)c1 [Compound 120]
[1]; Postemergence, 8 g ai/ha
  Plant response rating: Poinsettia, Wild: 25
[1]; Postemergence, 16 g ai/ha
  Plant response rating: Poinsettia, Wild: 35
[1]; Postemergence, 31 g ai/ha
  Plant response rating: Poinsettia, Wild: 13
[1]; Postemergence, 62 g ai/ha
  Plant response rating: Poinsettia, Wild: 60
[1]; Postemergence, 125 g ai/ha
  Plant response rating: Poinsettia, Wild: 90
[1]; Preemergence, 16 g ai/ha
  Plant response rating: Poinsettia, Wild: 0
[1]; Preemergence, 31 g ai/ha
  Plant response rating: Poinsettia, Wild: 0
[1]; Preemergence, 62 g ai/ha
  Plant response rating: Poinsettia, Wild: 0
[1]; Preemergence, 125 g ai/ha
  Plant response rating: Poinsettia, Wild: 35
[1]; Preemergence, 250 g ai/ha
  Plant response rating: Poinsettia, Wild: 50
[2]; 16 g ai/ha
  Plant response rating: Crabgrass, Large: 75
[2]; 31 g ai/ha
  Plant response rating: Crabgrass, Large: 95
[2]; 62 g ai/ha
  Plant response rating: Crabgrass, Large: 98
[2]; 125 g ai/ha
  Plant response rating: Crabgrass, Large: 100
[2]; 250 g ai/ha
  Plant response rating: Crabgrass, Large: 100
[3]; Postemergence, 8 g ai/ha
  Plant response rating: Crabgrass, Brazil: 10
[3]; Postemergence, 16 g ai/ha
  Plant response rating: Crabgrass, Brazil: 15
[3]; Postemergence, 31 g ai/ha
  Plant response rating: Crabgrass, Brazil: 25
[3]; Postemergence, 62 g ai/ha
  Plant response rating: Crabgrass, Brazil: 30
[3]; Postemergence, 125 g ai/ha
  Plant response rating: Crabgrass, Brazil: 40
[3]; Preemergence, 16 g ai/ha
  Plant response rating: Crabgrass, Brazil: 90
[3]; Preemergence, 31 g ai/ha
  Plant response rating: Crabgrass, Brazil: 100
[3]; Preemergence, 62 g ai/ha
  Plant response rating: Crabgrass, Brazil: 100
[3]; Preemergence, 125 g ai/ha
  Plant response rating: Crabgrass, Brazil: 100
[3]; Preemergence, 250 g ai/ha
  Plant response rating: Crabgrass, Brazil: 100
[4]; 16 g ai/ha
  Plant response rating: Foxtail, Giant: 85
[4]; 31 g ai/ha
  Plant response rating: Foxtail, Giant: 100
[4]; 62 g ai/ha
  Plant response rating: Foxtail, Giant: 100
[4]; 125 g ai/ha
  Plant response rating: Foxtail, Giant: 100
[4]; 250 g ai/ha
  Plant response rating: Foxtail, Giant: 100
[5]; 16 g ai/ha
  Plant response rating: Johnsongrass: 15
[5]; 31 g ai/ha
  Plant response rating: Johnsongrass: 15
[5]; 62 g ai/ha
  Plant response rating: Johnsongrass: 15
[5]; 125 g ai/ha
  Plant response rating: Johnsongrass: 35
[5]; 250 g ai/ha
  Plant response rating: Johnsongrass: 65
[6]; Postemergence, 8 g ai/ha
  Plant response rating: Barnyardgrass: 10
[6]; Postemergence, 16 g ai/ha
  Plant response rating: Barnyardgrass: 10
[6]; Postemergence, 31 g ai/ha
  Plant response rating: Barnyardgrass: 20
[6]; Postemergence, 62 g ai/ha
  Plant response rating: Barnyardgrass: 25
[6]; Postemergence, 125 g ai/ha
  Plant response rating: Barnyardgrass: 30
[6]; Preemergence, 16 g ai/ha
  Plant response rating: Barnyardgrass: 0
[6]; Preemergence, 31 g ai/ha
  Plant response rating: Barnyardgrass: 0
[6]; Preemergence, 62 g ai/ha
  Plant response rating: Barnyardgrass: 5
[6]; Preemergence, 125 g ai/ha
  Plant response rating: Barnyardgrass: 25
[6]; Preemergence, 250 g ai/ha
  Plant response rating: Barnyardgrass: 100
[8]; 16 g ai/ha
  Plant response rating: Morningglory: 0
[8]; 31 g ai/ha
  Plant response rating: Morningglory: 30
[8]; 62 g ai/ha
  Plant response rating: Morningglory: 35
[8]; 125 g ai/ha
  Plant response rating: Morningglory: 60
[8]; 250 g ai/ha
  Plant response rating: Morningglory: 60
[7]; 16 g ai/ha
  Plant response rating: Nightshade: 0
[7]; 31 g ai/ha
  Plant response rating: Nightshade: 0
[7]; 62 g ai/ha
  Plant response rating: Nightshade: 80
[7]; 125 g ai/ha
  Plant response rating: Nightshade: 98
[7]; 250 g ai/ha
  Plant response rating: Nightshade: 100
